# Literature values in patent US20110237832A1, “SYNTHESIS OF HDAC INHIBITORS: TRICHOSTATIN A AND ANALOGUES” (University of Notre Dame du Lac, priority 2010, published 2011).
# Tested on: HDACs
# Details: read-out: inhibits the activity of HDACs, IC50 value; in human T cells
structure (smiles),measurement,value
"CC(/C=C/C(=O)NO)=C\[C@@H](C)C(=O)c1ccc(N(C)C)cc1 [TSA, (+)-Trichostatin A]",IC50,70 nM
